# Experimental data from ChEMBL document CHEMBL4308841, “Synthesis, in vitro antiproliferative activity, and kinase inhibitory effects of pyrazole-containing diarylureas and diarylamides” (Eur J Med Chem, 2018).
# What was measured:
# [1] = test system: K562; assay: Growth inhibition of human K562 cells assessed as cell growth at 10 uM incubated for 48 hrs by sulforhodamine B assay relative to control; format: functional; conditions: K562, 48 h, read-out: Activity
# [2] = test system: RPMI-8226; assay: Growth inhibition of human RPMI8226 cells assessed as cell growth at 10 uM incubated for 48 hrs by sulforhodamine B assay relative to control; format: functional; conditions: RPMI-8226, 48 h, read-out: Activity
# [3] = test system: HOP-62; assay: Growth inhibition of human HOP62 cells assessed as cell growth at 10 uM incubated for 48 hrs by sulforhodamine B assay relative to control; format: functional; conditions: HOP-62, 48 h, read-out: Activity
# [4] = test system: NCI-H23; assay: Growth inhibition of human NCI-H23 cells assessed as cell growth at 10 uM incubated for 48 hrs by sulforhodamine B assay relative to control; format: functional; conditions: NCI-H23, 48 h, read-out: Activity
# [5] = test system: COLO 205; assay: Growth inhibition of human COLO205 cells assessed as cell growth at 10 uM incubated for 48 hrs by sulforhodamine B assay relative to control; format: functional; conditions: COLO 205, 48 h, read-out: Activity
# [6] = test system: HCT-15; assay: Growth inhibition of human HCT15 cells assessed as cell growth at 10 uM incubated for 48 hrs by sulforhodamine B assay relative to control; format: functional; conditions: HCT-15, 48 h, read-out: Activity
# [7] = test system: SW-620; assay: Growth inhibition of human SW620 cells assessed as cell growth at 10 uM incubated for 48 hrs by sulforhodamine B assay relative to control; format: functional; conditions: SW-620, 48 h, read-out: Activity
# [8] = test system: SF-268; assay: Growth inhibition of human SF268 cells assessed as cell growth at 10 uM incubated for 48 hrs by sulforhodamine B assay relative to control; format: functional; conditions: SF-268, 48 h, read-out: Activity
# [9] = test system: U-251; assay: Growth inhibition of human U251 cells assessed as cell growth at 10 uM incubated for 48 hrs by sulforhodamine B assay relative to control; format: functional; conditions: U-251, 48 h, read-out: Activity
# [10] = test system: Malme-3M; assay: Growth inhibition of human MALME-3M cells assessed as cell growth at 10 uM incubated for 48 hrs by sulforhodamine B assay relative to control; format: functional; conditions: read-out: Activity
# [11] = test system: UACC-62; assay: Growth inhibition of human UACC62 cells assessed as cell growth at 10 uM incubated for 48 hrs by sulforhodamine B assay relative to control; format: functional; conditions: UACC-62, 48 h, read-out: Activity
# [12] = test system: IGROV-1; assay: Growth inhibition of human IGROV1 cells assessed as cell growth at 10 uM incubated for 48 hrs by sulforhodamine B assay relative to control; format: functional; conditions: IGROV-1, 48 h, read-out: Activity
# [13] = test system: OVCAR-3; assay: Growth inhibition of human OVCAR3 cells assessed as cell growth at 10 uM incubated for 48 hrs by sulforhodamine B assay relative to control; format: functional; conditions: OVCAR-3, 48 h, read-out: Activity
# [14] = test system: OVCAR-4; assay: Growth inhibition of human OVCAR4 cells assessed as cell growth at 10 uM incubated for 48 hrs by sulforhodamine B assay relative to control; format: functional; conditions: OVCAR-4, 48 h, read-out: Activity
# [15] = test system: OVCAR-8; assay: Growth inhibition of human OVCAR8 cells assessed as cell growth at 10 uM incubated for 48 hrs by sulforhodamine B assay relative to control; format: functional; conditions: OVCAR-8, 48 h, read-out: Activity
# [16] = test system: NCI/ADR-RES; assay: Growth inhibition of human NCI/ADR-RES cells assessed as cell growth at 10 uM incubated for 48 hrs by sulforhodamine B assay relative to control; format: functional; conditions: read-out: Activity
# [17] = test system: SK-OV-3; assay: Growth inhibition of human SKOV3 cells assessed as cell growth at 10 uM incubated for 48 hrs by sulforhodamine B assay relative to control; format: functional; conditions: SK-OV-3, 48 h, read-out: Activity
# [18] = test system: SN12C; assay: Growth inhibition of human SN12C cells assessed as cell growth at 10 uM incubated for 48 hrs by sulforhodamine B assay relative to control; format: functional; conditions: read-out: Activity
# [19] = test system: DU-145; assay: Growth inhibition of human DU145 cells assessed as cell growth at 10 uM incubated for 48 hrs by sulforhodamine B assay relative to control; format: functional; conditions: DU-145, 48 h, read-out: Activity
# [20] = test system: MDA-MB-231; assay: Growth inhibition of human MDA-MB-231 cells assessed as cell growth at 10 uM incubated for 48 hrs by sulforhodamine B assay relative to control; format: functional; conditions: MDA-MB-231, 48 h, read-out: Activity
# [21] = test system: Hs-578T; assay: Growth inhibition of human Hs578T cells assessed as cell growth at 10 uM incubated for 48 hrs by sulforhodamine B assay relative to control; format: functional; conditions: read-out: Activity
# [22] = test system: NCI-H226; assay: Growth inhibition of human NCI-H226 cells incubated for 48 hrs by sulforhodamine B assay; format: functional, cell-based; conditions: NCI-H226, 48 h
# [23] = test system: CAKI-1; assay: Growth inhibition of human Caki1 cells incubated for 48 hrs by sulforhodamine B assay; format: functional, cell-based; conditions: CAKI-1, 48 h
# [24] = test system: DU-145; assay: Growth inhibition of human DU145 cells incubated for 48 hrs by sulforhodamine B assay; format: functional, cell-based; conditions: DU-145, 48 h
# [25] = test system: T47D; assay: Growth inhibition of human T47D cells incubated for 48 hrs by sulforhodamine B assay; format: functional, cell-based
# [26] = test system: SK-MEL-28; assay: Growth inhibition of human SK-MEL-28 cells assessed as cell growth at 0.01 uM incubated for 48 hrs by sulforhodamine B assay relative to control; format: functional; conditions: SK-MEL-28, 48 h, read-out: Activity
# [27] = test system: OVCAR-3; assay: Growth inhibition of human OVCAR3 cells assessed as cell growth at 0.01 uM incubated for 48 hrs by sulforhodamine B assay relative to control; format: functional; conditions: OVCAR-3, 48 h, read-out: Activity
# [28] = test system: CCRF-CEM; assay: Growth inhibition of human CCRF-CEM cells assessed as cell growth at 0.1 uM incubated for 48 hrs by sulforhodamine B assay relative to control; format: functional; conditions: read-out: Activity
# [29] = test system: A549; assay: Growth inhibition of human A549/ATCC cells assessed as cell growth at 100 uM incubated for 48 hrs by sulforhodamine B assay relative to control; format: functional; conditions: A549, 48 h, read-out: Activity
# [30] = test system: LOX IMVI; assay: Growth inhibition of human LOXIMVI cells assessed as cell growth at 100 uM incubated for 48 hrs by sulforhodamine B assay relative to control; format: functional; conditions: read-out: Activity
# [31] = test system: DU-145; assay: Growth inhibition of human DU145 cells assessed as cell growth at 100 uM incubated for 48 hrs by sulforhodamine B assay relative to control; format: functional; conditions: DU-145, 48 h, read-out: Activity
# [32] = read-out: LC50 (the source's name)
# [33] = read-out: pLC50 (the source's name) (converted)
structure (smiles),measurement,setting,value
O=C(Nc1cccc(-n2cc(-c3ccncc3)c(-c3cc(O)cc(Cl)c3)n2)c1)Nc1ccc(Cl)c(Cl)c1,growth at 10 µM,[1],1.06%
same,growth at 10 µM,[2],-15.3%
same,growth at 10 µM,[3],-44.2%
same,growth at 10 µM,[4],-20.4%
same,growth at 10 µM,[5],22.4%
same,growth at 10 µM,[6],-25.3%
same,growth at 10 µM,[7],-33.8%
same,growth at 10 µM,[8],16.2%
same,growth at 10 µM,[9],-56.5%
same,growth at 10 µM,[10],-35.1%
same,growth at 10 µM,[11],-61.8%
same,growth at 10 µM,[12],26%
same,growth at 10 µM,[13],-47.4%
same,growth at 10 µM,[14],10.7%
same,growth at 10 µM,[15],-14.8%
same,growth at 10 µM,[16],12.8%
same,growth at 10 µM,[17],13.2%
same,growth at 10 µM,[18],14.9%
same,growth at 10 µM,[19],-15.1%
same,growth at 10 µM,[20],-38.1%
same,growth at 10 µM,[21],-6.42%
same,GI50,[22]; read-out: GI50,2.28 µM
same,LC50,[22]; read-out: LC50,> 100 µM
same,TGI,[22]; read-out: TGI,71.6 µM
same,GI50,[22]; read-out: pGI50 (converted),2.29 µM
same,LC50,[22]; read-out: pLC50 (converted),> 100 µM
same,TGI,[22]; read-out: pTGI (converted),7.08 µM
same,GI50,[23]; read-out: GI50,2.21 µM
same,CC50,[23]; [32],> 100 µM
same,TGI,[23]; read-out: TGI,70.1 µM
same,GI50,[23]; read-out: pGI50 (converted),2.19 µM
same,CC50,[23]; [33],> 100 µM
same,TGI,[23]; read-out: pTGI (converted),7.08 µM
same,GI50,[24]; read-out: GI50,2.5 µM
same,CC50,[24]; [32],> 100 µM
same,TGI,[24]; read-out: TGI,10.1 µM
same,GI50,[24]; read-out: pGI50 (converted),2.82 µM
same,CC50,[24]; [33],> 100 µM
same,TGI,[24]; read-out: pTGI (converted),10.2 µM
same,GI50,[25]; read-out: GI50,2.32 µM
same,CC50,[25]; [32],> 100 µM
same,TGI,[25]; read-out: TGI,61.7 µM
same,GI50,[25]; read-out: pGI50 (converted),2.4 µM
same,CC50,[25]; [33],> 100 µM
same,TGI,[25]; read-out: pTGI (converted),6.17 µM
same,growth at 0.01 µM,[26],108%
same,growth at 0.01 µM,[27],103%
same,growth at 0.1 µM,[28],95%
same,growth at 100 µM,[29],-32%
same,growth at 100 µM,[30],-38%
same,growth at 100 µM,[31],-31%
COc1cc(Cl)cc(-c2nn(-c3cccc(NC(=O)Nc4cccc(C(F)(F)F)c4)c3)cc2-c2ccncc2)c1,growth at 10 µM,[1],7.61%
same,growth at 10 µM,[2],-14.2%
same,growth at 10 µM,[3],15.5%
same,growth at 10 µM,[4],-5.1%
same,growth at 10 µM,[5],-31.2%
same,growth at 10 µM,[6],7.83%
same,growth at 10 µM,[7],11.2%
same,growth at 10 µM,[8],27.9%
same,growth at 10 µM,[9],4.59%
same,growth at 10 µM,[10],-16.6%
same,growth at 10 µM,[11],-11.5%
same,growth at 10 µM,[12],28.9%
same,growth at 10 µM,[13],-0.41%
same,growth at 10 µM,[14],3.28%
same,growth at 10 µM,[15],-12.3%
same,growth at 10 µM,[16],3.58%
same,growth at 10 µM,[17],14.2%
same,growth at 10 µM,[18],13.9%
same,growth at 10 µM,[19],15.9%
same,growth at 10 µM,[20],-9.21%
same,growth at 10 µM,[21],23.1%
same,GI50,[22]; read-out: GI50,2.26 µM
same,LC50,[22]; read-out: LC50,> 100 µM
same,TGI,[22]; read-out: TGI,11.5 µM
same,GI50,[22]; read-out: pGI50 (converted),2.24 µM
same,LC50,[22]; read-out: pLC50 (converted),> 100 µM
same,TGI,[22]; read-out: pTGI (converted),28.8 µM
same,GI50,[23]; read-out: GI50,1.29 µM
same,CC50,[23]; [32],> 100 µM
same,TGI,[23]; read-out: TGI,52 µM
same,GI50,[23]; read-out: pGI50 (converted),1.29 µM
same,CC50,[23]; [33],> 100 µM
same,TGI,[23]; read-out: pTGI (converted),8.91 µM
same,GI50,[24]; read-out: GI50,2.61 µM
same,CC50,[24]; [32],> 100 µM
same,TGI,[24]; read-out: TGI,> 100 µM
same,GI50,[24]; read-out: pGI50 (converted),2.63 µM
same,CC50,[24]; [33],> 100 µM
same,TGI,[24]; read-out: pTGI (converted),> 100 µM
same,GI50,[25]; read-out: GI50,1.23 µM
same,CC50,[25]; [32],> 100 µM
same,TGI,[25]; read-out: TGI,59.9 µM
same,GI50,[25]; read-out: pGI50 (converted),1.23 µM
same,CC50,[25]; [33],> 100 µM
same,TGI,[25]; read-out: pTGI (converted),6.92 µM
same,growth at 0.01 µM,[26],99%
same,growth at 0.01 µM,[27],100%
same,growth at 0.1 µM,[28],97%
same,growth at 100 µM,[29],-24%
same,growth at 100 µM,[30],-53%
same,growth at 100 µM,[31],7%
